Measured values taken from ChEMBL document CHEMBL3507680, “University of Dundee, Gates Library screen for HepG2 cell viability”.

Experiment: Human HepG2 cell viability assay in 384 well format
Type: toxicity, cell-based
Set-up: dose 125 nL, time 70.5 hour; cytotoxicity at 70.5 h: concentration not given beside the values
Conditions: HepG2 cells, read-out: Inhibition

Compound	cytotoxicity at 70.5 h
O=C(Nc1c(F)cccc1Oc1ccccc1)C1CCS(=O)(=O)C1 (configuration not stated)	-1.02%
Cc1nn(C)c(N(C)C)c1CNC1CCOc2ccccc21 (configuration not stated)	1.15%
Cc1cccc(C(C(=O)NCCCc2ccncc2)N(C)C)c1 (configuration not stated)	-4.41%
CCCN1CCC(NC(=O)Nc2ccc(OC)c(OC)c2)CC1	-1.26%
COCCC(=O)N(Cc1cccnc1)CC1CCN(C2CCCC2)CC1	3.05%
Cc1noc(C)c1CC(=O)NCC(C)N1CCOCC1 (configuration not stated)	-2.99%
CN(C)C(=O)[C@@H]1CCO[C@@H]2CCN(CCc3ccccc3)C[C@@H]21	1.43%
CCOC(=O)[C@H]1[C@@H](O)C(=O)N(C)C12CCN(C(=O)OCC)CC2	0.864%
Cc1nc2n(n1)CC(NCc1nc(C)c(C)o1)CC2 (configuration not stated)	-0.801%
CC(C)n1cnnc1CNC(=O)c1cnn(Cc2ccccc2)c1	-2.61%
COCCNC(=O)[C@@H]1CN(c2cc(OC)ncn2)C[C@H]2OCC[C@H]21	-7.76%
Cn1cc(CN2CCC(F)(F)C3(CCN(c4cnccn4)C3)C2)cn1 (configuration not stated)	-0.766%
Cn1c(CO)cnc1SC1CCCN(c2ccccc2F)C1=O (configuration not stated)	6.04%
COc1ccc(S(=O)(=O)N2CCn3nc(C)nc3C2)cc1C	-5.13%
CCCN(CCO)C(=O)C1CCC(=O)N(CCc2ccc(Cl)cc2)C1 (configuration not stated)	-4.6%
Cc1ncc(-c2ccnc(N3CCN(C)CC3)n2)c(-c2cccnc2)n1	-13.1%
COC[C@H]1CCCN1c1nccc(-c2cnn(-c3ccccc3C)c2)n1	-1.39%
Cc1cccc2c1ccn2CCC(=O)Nc1c2c(nn1C)CSC2	-7.62%
COCc1cc(N(C)CCC(O)c2ccccc2)n2nccc2n1 (configuration not stated)	-7.44%
O=C(Nc1ccccc1)N1CCn2c(nnc2C2CCCN2)C1 (configuration not stated)	-9.71%
CCCN(CC(=O)OC)C(=O)c1sc(C)nc1C	-15.4%
Cc1cc(=O)[nH]c(-n2nc(C)c(CCC(=O)Nc3nc(C)cs3)c2C)n1	-3.34%
CC(C)c1cccc(-n2cc(O)c(C(=O)O)n2)c1	-5.44%

Compound	cytotoxicity at 70.5 h
CCN(CC)Cc1cn2c(n1)CN(C(=O)c1cnccn1)CC2	-13.4%
CCc1nc(CN2CCCC(NCc3cccc(C(N)=O)c3)C2)no1 (configuration not stated)	-6.52%
COc1cccc(-c2cnc3n2CCC32CCN(C(C)=O)CC2)c1	-3.5%
O=C(N[C@@H]1CN(c2ncccn2)[C@@H]2CCCO[C@@H]21)c1cscn1	20.2%
COCC(=O)N1CC[C@]2(O)CCN(C(=O)CCc3ccsc3)C[C@@H]2C1	-10.1%
Cn1cc(C(=O)N2CCCC(c3ccncc3)C2)cn1 (configuration not stated)	-7.32%
Cn1c(C(=O)N(CC(N)=O)C2CCCC2)cc(Cl)c1Cl	-10.6%
CCC(O)CN1CCN(C(=O)c2cc(Cl)cc3cccnc23)CC1 (configuration not stated)	18.2%
CS(=O)(=O)NC1CC(=O)N(c2ccccc2Cl)C1 (configuration not stated)	-27%
Cc1csc2cc(C(=O)NC3CCCC3)cnc12	3.45%
CCc1nc(Cn2c(=O)c3c(C(F)(F)F)cc(C)nc3n2C)no1	0.468%
COc1cccc(C(=O)N2CCc3c(nc(N)[nH]c3=O)C2)c1OC	-2.24%
O=C(Cc1ccccc1)N1C[C@@H]2OCCN(CC3CCCO3)[C@@H]2C1 (some centres not stated)	-6.14%
CC(C)C(Sc1nccn1C1CC1)C(=O)NCc1cccnc1 (configuration not stated)	16%
CC(C)N1c2sc(-c3ccsc3)nc2CC1C(=O)NC1CCCC1 (configuration not stated)	-7.06%
CCSc1cc(C(=O)N(C(C)C)C2CC2)ccn1	-3.36%
Cc1nc(CN(Cc2cccs2)C2CCS(=O)(=O)C2)oc1C (configuration not stated)	-16%
CN1CCOC(C(=O)Nc2nc(-c3ccc4c(c3)CCC4)n[nH]2)C1 (configuration not stated)	-6.75%
CCN1CCN(S(=O)(=O)c2cc(Cl)c(Cl)cc2C)CC1	-2.4%
Cc1cccc2c1nc(CCO)n2-c1ccc(C(=O)N2CCOCC2)o1	-1.12%
CCC(CNC(=O)Cc1c(C)noc1C)N1CCCC1 (configuration not stated)	-6.77%
O=C(Cc1csc(-c2cccc(Cl)c2)n1)NCc1cccc(C(=O)O)c1	-14.3%
O=C(c1ccc(COc2ccccc2Cl)o1)N1N=CCC1(O)C(F)(F)F (configuration not stated)	-4.75%

Compound	cytotoxicity at 70.5 h
Cc1noc(C)c1CN1C(=O)[C@H]2CC[C@@H]1CN(Cc1ncc[nH]1)C2	-0.471%
O=C(Nc1ccccc1F)N(CCO)Cc1ccsc1	31.8%
Cc1ccc(C(=O)N2CCCC(C(=O)N3CCCCC3)C2)c(O)c1 (configuration not stated)	13.3%
Cc1ccc(C2CN(Cc3cnc(-c4cccnc4)s3)CCO2)o1 (configuration not stated)	7.31%
CCN(C(=O)CN1CCCN(c2nc(C)ns2)CC1)C1CC1	-3.69%
CN(C)CCO[C@H]1C[C@@H](O)C12CCN(c1cnccn1)CC2	-6.05%
CCS(=O)(=O)N1Cc2nccn2CC(CN2CCCC2)C1 (configuration not stated)	4.02%
c1cn(CCc2c[nH]cn2)c(-c2cc(CN3CCCC3)cs2)n1	-9.06%
COCc1noc(-c2ccc(N(C)Cc3c(C)n[nH]c3C)nc2)n1	-5.36%
Cc1nc(C)n(CC2CCCCN2Cc2ncc(C(C)(C)C)o2)n1 (configuration not stated)	8%
COc1ccc(CN(Cc2cncn2C)CC2CCCO2)cc1OC (configuration not stated)	-10.3%
c1cnc(CC2CCN(c3cnccn3)CC2)cn1	-7.05%
NC(=O)NC(=O)CCn1ccc(-c2ccccc2)n1	16%
CCCc1nc(CN(CC)Cc2ccc(O)c(C(=O)O)c2)no1	-8.69%
Cc1cnc(N2CC[C@H]3[C@@H]2CCC(=O)N3c2cccnc2)nc1	-2.59%
Cc1c[nH]c(CN2CCCn3nc(CNS(C)(=O)=O)cc3C2)n1	16%
CN1CCCC(c2cccc(CCC(=O)NCC3(C)COC3)n2)C1 (configuration not stated)	-1.36%
N#Cc1ccc(CN(CC(N)=O)C2CCCC2)c(Br)c1	-6.26%
CCn1cc2c(n1)CN(Cc1ccc(F)cc1)CC2COCC1CC1 (configuration not stated)	-1.9%
CN(C)S(=O)(=O)N1CCC(Cn2cccn2)CC1	-7.21%
CC(C)CNC(=O)CNc1c(NCc2ccccn2)c(=O)c1=O	2.45%
O=c1c2sccc2ncn1CC(O)CN1CCOCC1 (configuration not stated)	-10.3%
CCc1nc(CCNc2ncccn2)sc1C	-7.68%

Compound	cytotoxicity at 70.5 h
O=C(c1ccco1)N1CCO[C@@H]2CNC[C@@H]21	-6.25%
Cc1ccn(CCC(=O)NCc2ccco2)n1	0.885%
CC(=O)Cn1c(C)cc(=O)c2cc(F)ccc21	1.19%
COCc1cncc2c1CCN(Cc1cnn(C)c1)C2	10.6%
Cc1cc(C[C@@H]2CCC[C@H]2NCc2ccc(C(F)(F)F)cc2)on1	-2%
NC(=O)CN1CCC(NC(=O)COc2ccc(Cl)c(Cl)c2)CC1	-2.35%
CCc1n[nH]c(C2CN(C(=O)CCc3cscn3)CCO2)n1 (configuration not stated)	1.24%
COc1cc(N2CCC3(CCN(Cc4csc(C)n4)C3)CC2)ncn1	-5.2%
CCn1cc(N2Cc3nc(N4CCOCC4)ncc3C2=O)cn1	2.67%
Cc1cnc(N2C[C@H]3CCN(CC4CC4)C[C@@H]3C2)nc1	7.8%
CC(=O)N1CCC(n2ccc(-c3cnc(N4CCOCC4)nc3)n2)CC1	-5.97%
O=c1ccc(-c2cccs2)nn1CN1CCCCCC1	-24.8%
CCc1ccc(CN2CCC(=O)N(CC3CC3)C(C(C)C)C2)nc1 (configuration not stated)	-11.4%
Cc1nc(N2CCN(C)CC2)ncc1C(=O)N1CC(C)(C)C(C)(O)C1 (configuration not stated)	14.1%
Cc1cnc(N2Cc3nccn3CC(Cn3ncccc3=O)C2)nc1 (configuration not stated)	-1%
c1csc(CCNc2nc(-c3ccncc3)nc3c2CCNCC3)c1	-6.1%
Cc1cc(NC(=O)N2CCCC2C(C)(C)O)c2ncccc2c1 (configuration not stated)	-75.7%
Cn1cc(CN2CCCC(Cn3cc(CCCO)nn3)C2)cn1 (configuration not stated)	-7.9%
CCNC(=O)CNC(=O)Nc1cccc(Cl)c1SC(F)F	0.0144%
Cc1cc(NC(=O)c2ccc(N3CCOCC3)c(F)c2)[nH]n1	-1.35%
Cc1nc(C)n(CC2CCCN(Cc3nc(C)c(C)o3)C2)n1 (configuration not stated)	13.2%
C[S+]([O-])c1nncn1CC(=O)c1ccc2c(c1)CCC2 (configuration not stated)	8.46%
Fc1ccc(CN2CCO[C@H]3[C@H](OCc4ccncc4)CC[C@@H]32)cc1	55.8%

Compound	cytotoxicity at 70.5 h
CN(C)Cc1nn(C)c2c1CCN(C(=O)c1cccnc1)C2	-20.7%
CCN(Cc1ccccc1Cl)Cn1nc(C)c2c(C)onc2c1=O	-6.62%
CCCn1nc2c(cc1=O)CN(Cc1nc(-c3ccco3)no1)CC2	-1.15%
O=C1CO[C@H]2CN(Cc3cccc(F)c3F)C[C@@H]2N1C1CCOCC1	41.9%
COc1ccc(S(=O)(=O)N[C@H]2CN(C(C)=O)C[C@@H]2C2CC2)cc1C	-14.2%
O=C(CCN1CCOCC1)Nc1cccc(CNCc2ccsc2)c1	14.1%
CSCCCNC(=O)C1CCC(=O)N(C2CCCC2)C1 (configuration not stated)	-3.06%
Cc1nnc(NC(=O)NC(C)Cn2cccn2)s1 (configuration not stated)	-7.53%
CN(C)CCN1C[C@@H]2CN(c3ccccc3)C[C@@H]2C1=O	23.6%
CN(CC(O)C1CC1)C(=O)Nc1ccc(F)c(-n2cccc2)c1 (configuration not stated)	-2.43%
Cc1c(CCC(=O)N2CCCC2c2ccnc(N(C)C)c2)cnn1C (configuration not stated)	-1.8%
CC(C)N(CCNC(=O)c1[nH]nc2ccc(I)cc12)C(C)C	-1.97%
Cc1ncc(CNC(=O)CCc2ccccc2F)c(C2CCCN2C)n1 (configuration not stated)	-0.236%
COc1ccc(C(=O)N2C[C@@H](C(=O)O)[C@H](c3ccccc3)C2)c(C)c1	11.5%
CN(C)Cc1nc(C(C)(C)NC(=O)c2ccnn2C)no1	8.69%
COc1c(F)cccc1C(=O)N(C)Cc1nc(-c2ccccn2)no1	-6.48%
Cn1cc(C(=O)N2CCCC(c3cnccn3)C2)cn1 (configuration not stated)	-4.7%
CCC[C@@H]1CN(Cc2ccc(N(C)C)nc2)C[C@H]1N(C)C	-9.01%
Cc1noc(CNc2ccc(OC(F)F)cc2OC(F)F)n1	-2.77%
Cc1nc[nH]c1CN1CCN(C(=O)c2cccs2)[C@H]2CS(=O)(=O)C[C@H]21	-8.73%
